This is an account of results in patent US10046014B2, “Useful active agent for preventing and/or treating dandruff conditions of the scalp” (L'OREAL, priority 2011, dated 2018).

One assay deals with Malassezia restricta. As to the kind of experiment: Antifungal inhibition test on agar (Malassezia suspension, growth scored against control). As to conditions: positive reference 1% zinc pyrithione. Also noted: key to inhibition score (density of the culture at the surface of the agar vs growth control): 3: No growth; 2: Growth < in the control dish; 1: Growth < in the control dish; 0: Growth comparable to the control dish. The format is cell-based. On the procedure: (§1) The test product is brought into contact with the Malassezia suspension. The mixture is deposited at the surface of agar medium. It is spread and the excess is recovered before incubation. It is incubated for at least 5 days at 30° C.
(§2) The products are placed in solution in liquid modified Leeming and Notman medium (LNm) and the tests are carried out in duplicate. The complete culture is at 7.5 g/l or 150 g/l (concentrated version) on a dry matter basis.
(§3) The complete culture was tested at 10% (for the concentration at 7.5 g/l) and at 1% (for the concentration at 150 g/l).
(§4) The positive reference is 1% zinc pyrithione.
(§5) The solutions of the products are twice as concentrated in order to take into account the dilution to ½ during the bringing into contact with the Malassezia suspension.
(§6) The Malassezia globosa and restricta strains were received on agar slopes and were subcultured and incubated at 30° C. until the tests.
(§7) The suspensions are prepared in 15 ml of a buffered solution (ref AEB611294, AES).
(§8) The density of the suspensions is taken at 550 nm.
(§9) The antifungal effect of the reference product is evaluated via the absence of growth of the Malassezia strain tested. This inhibition is evaluated relative to the growth control.
(§10) The inhibitions are scored from 3 to 0 via assessment of the density of the culture at the surface of the agar, in comparison with the growth control for the strain.

A further assay has as its system Malassezia globosa. The assay is described as above. The format is cell-based. Also noted: key to inhibition score (density of the culture at the surface of the agar vs growth control): 3: No growth; 2: Growth < in the control dish; 1: Growth < in the control dish; 0: Growth comparable to the control dish. As to conditions: positive reference 1% zinc pyrithione. As to the method: as §1, §2, §3, §4, §5, §6, §7, §8, §9, §10

On to Zinc pyrithione, for which the inhibition in words entry in the assay with Malassezia restricta and in the assay with Malassezia globosa was “Total inhibition” in each case. In addition, the “inhibition score (density of the culture at the surface of the agar vs growth control)” value in the assay on Malassezia restricta (at least 5 days at 30° C.) and with Malassezia globosa (at least 5 days at 30° C.) was 3 throughout.
